Experimental findings from paper PMC11843613, “Further Optimization of the mGlu1 PAM VU6024578/BI02982816: Discovery and Characterization of VU6033685” (ACS Chemical Neuroscience, 2025) are described below.

The target of data set [1] is rat mGlu1 (Rattus norvegicus, UniProt P23385). Briefly: mGlu1 PAM functional assay (rat). In kind it is cell-based.
Data set [2] has as its target T1, CYP450 1A2 (Homo sapiens, UniProt P05177).
T1 construct: 0.1 mg/mL human liver microsomes (HLM); from tissue; host or cells: human liver microsomes
T1 sequence (P05177 1-516): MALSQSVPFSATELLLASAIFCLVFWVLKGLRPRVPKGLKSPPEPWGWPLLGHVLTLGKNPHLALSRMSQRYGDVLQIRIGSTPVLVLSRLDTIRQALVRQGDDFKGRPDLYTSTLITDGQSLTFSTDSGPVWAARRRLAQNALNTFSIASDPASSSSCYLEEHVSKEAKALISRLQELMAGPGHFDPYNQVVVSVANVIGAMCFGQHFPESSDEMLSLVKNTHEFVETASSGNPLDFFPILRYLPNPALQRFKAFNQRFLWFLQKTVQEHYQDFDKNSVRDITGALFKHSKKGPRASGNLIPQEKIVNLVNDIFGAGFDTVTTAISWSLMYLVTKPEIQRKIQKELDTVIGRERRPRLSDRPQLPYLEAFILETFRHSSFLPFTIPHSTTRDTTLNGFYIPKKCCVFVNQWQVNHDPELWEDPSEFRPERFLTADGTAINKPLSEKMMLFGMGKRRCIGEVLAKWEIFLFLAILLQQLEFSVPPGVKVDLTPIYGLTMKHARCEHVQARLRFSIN
The experiment in a line: Inhibition of cytochrome P450 enzymes in human liver microsomes, 1A2. In kind it is in vitro ADME. As for the experimental part:
Inhibition of Cytochrome P450 Enzymes: A cocktail of substrates for cytochrome P450 enzymes (1A2: Phenacetin, 10 µM; 2C9: Diclofenac, 5 µM; 2D6: Dextromethorphan, 5 µM; 3A4:
Midazolam, 2 µM) were mixed for cocktail analysis. For P450 2C19, the substrate stock (Mephenytoin, 40 µM )and substrate mix were prepared separately for discrete analysis. The […]
positive control for pan-P450 inhibition (miconazole) was included alongside each test compound […]
A reaction mixture of 100 mM Kpi, pH 7.4, 0.1 mg/mL human liver microsomes (HLM) and Substrate Mix is prepared and aliquoted into a 96-deepwell block. Test compound and positive control (in duplicate) were then added such that the final concentration of test compound ranged from 0.1 – 30 µM. The plate was vortexed briefly and then pre-incubated at 37 °C while shaking for 15 minutes. The reaction was initiated with the addition of NADPH (1 mM final concentration). The incubation continued for 8 min and the reaction quenched by 2x volume of cold acetonitrile containing internal standard (50 nM carbamazepine). The plate was centrifuged for 10 minutes (4000 rcf, 4°C) and the resulting supernatant diluted 1:1 with water for LC/MS/MS analysis. A 12 point standard curve of substrate metabolites over the range of 0.98 nM to 2000 […]
Samples were analyzed via electrospray ionization (ESI) on an AB Sciex API-4000 (Foster City, CA) triple-quadrupole instrument that was coupled with Shimadzu LC-10AD pumps (Columbia, MD) and a Leap Technologies CTC PAL auto-sampler (Carrboro, NC). Analytes were separated by gradient elution using a Fortis C18 3.0 x 50 mm, 3 µm column (Fortis Technologies Ltd, Cheshire, UK) thermostated at 40°C. HPLC mobile phase A was 0.1% formic acid in water (pH unadjusted), mobile phase B was 0.1% formic acid in acetonitrile (pH unadjusted). The gradient […]
90% B for 0.1 min and returned to 10% B in 0.1 min followed by a re-equilibration (0.9 min). The total run time was 2.5 min and the HPLC flow rate was 0.5 mL/min. The source temperature was set at 500°C and mass spectral analyses were performed using multiple reaction monitoring (MRM), with transitions specific for each compound utilizing a Turbo-Ionspray® source in positive ionization mode (5.0 kV spray voltage).
The IC50 values for each compound were obtained for the individual CYP enzymes by quantitating the inhibition of metabolite formation for each probe substrate. A 0 µM compound condition (or control) was set to 100% enzymatic activity and the effect of increasing test compound concentrations on enzymatic activity could then be calculated from the % of control activity.
Curves were fitted using XLfit 5.2.2 (four-parameter logistic model, equation 201) to determine the concentration that produces half-maximal inhibition (IC50).
In general terms: Liver microsomes are a subcellular fraction often used to study metabolism.

Data set [3] can be described thus: Plasma protein binding, equilibrium dialysis (rat). The conditions noted are these: pH 7.4, rat plasma, read-out: fu plasma (r). The format is in vitro ADME. As for the experimental part: page 13: at half log concentrations in DMSO were further diluted in assay buffer. The compounds or DMSO vehicle were added to cells and incubated for 2.5 min and an EC20 concentration of glutamate was added and incubated for 1 min. An ECmax concentration of glutamate was also added to cells that were incubated with DMSO vehicle to accurately calculate the EC20 calcium response. Data were normalized by subtracting the basal florescent peak before EC20 agonist addition from the maximal peak elicited by EC20 agonist and PAMs. Using GraphPad Prism 5.0, the concentration response curves were generated and the potencies of the mGlu1 PAMs were determined. DMPK Methods Plasma protein binding: The protein binding of each compound was determined in plasma via equilibrium dialysis employing RED Plates (ThermoFisher Scientific, Rochester, NY). Plasma was added to the 96 well plate containing test compound and mixed thoroughly for a final concentration of 5 µM. Subsequently, an aliquot of the plasma-compound mixture was transferred to the cis chamber (red) of the RED plate, with an phosphate buffer (25 mM, pH 7.4) in the trans chamber. The RED plate was sealed and incubated for 4 hours at 37°C with shaking. At completion, aliquots from each chamber were diluted 1:1 with either plasma (cis) or buffer (trans) and transferred to a new 96 well plate, at which time ice-cold acetonitrile containing internal standard (50 ng/mL carbamazepine) (2 volumes) was added to extract the matrices. The plate was centrifuged (3000 rcf, 10 min) and supernatants transferred and diluted 1:1 (supernatant: water) into a new 96 well plate, which was then sealed in preparation for LC/MS/MS analysis. Each compound was assayed in triplicate within the same 96-well plate. Fraction unbound was determined using the following equation F = Concbuffer u Conc plasma Intrinsic clearance: Human or rat hepatic microsomes (0.5 mg/mL) and 1 µM test compound were incubated in 100 mM potassium phosphate pH 7.4 buffer with 3 mM MgCl2 at 37°C with constant shaking. After a 5 min preincubation, the reaction was initiated by addition of NADPH (1 mM). At selected time intervals (0, 3, 7, 15, 25, and 45 min), aliquots were taken and subsequently placed into a 96-well plate containing cold acetonitrile with internal standard (50 ng/mL carbamazepine). Plates were then centrifuged at 3000 rcf (4° C) for 10 min, and the supernatant was transferred to a separate 96-well plate and diluted 1:1 with water for LC/MS/MS analysis. The in vitro half-life (T 1/2, min, Eq. 1), intrinsic clearance (CLint, mL/min/kg, Eq. 2) and subsequent predicted hepatic clearance (CLhep, mL/min/kg, Eq. 3) was determined S13
On the technique in general: Equilibrium dialysis compares concentrations on both sides of a semipermeable membrane.

For orientation: EC50 means the midpoint of the concentration-response curve. A higher EC50 goes with weaker potency. Broadly, the IC50 is the concentration at which inhibition is half-maximal. Low readings indicate greater potency, high ones weaker potency.

rat mGlu1, sequence (P23385 19-1199): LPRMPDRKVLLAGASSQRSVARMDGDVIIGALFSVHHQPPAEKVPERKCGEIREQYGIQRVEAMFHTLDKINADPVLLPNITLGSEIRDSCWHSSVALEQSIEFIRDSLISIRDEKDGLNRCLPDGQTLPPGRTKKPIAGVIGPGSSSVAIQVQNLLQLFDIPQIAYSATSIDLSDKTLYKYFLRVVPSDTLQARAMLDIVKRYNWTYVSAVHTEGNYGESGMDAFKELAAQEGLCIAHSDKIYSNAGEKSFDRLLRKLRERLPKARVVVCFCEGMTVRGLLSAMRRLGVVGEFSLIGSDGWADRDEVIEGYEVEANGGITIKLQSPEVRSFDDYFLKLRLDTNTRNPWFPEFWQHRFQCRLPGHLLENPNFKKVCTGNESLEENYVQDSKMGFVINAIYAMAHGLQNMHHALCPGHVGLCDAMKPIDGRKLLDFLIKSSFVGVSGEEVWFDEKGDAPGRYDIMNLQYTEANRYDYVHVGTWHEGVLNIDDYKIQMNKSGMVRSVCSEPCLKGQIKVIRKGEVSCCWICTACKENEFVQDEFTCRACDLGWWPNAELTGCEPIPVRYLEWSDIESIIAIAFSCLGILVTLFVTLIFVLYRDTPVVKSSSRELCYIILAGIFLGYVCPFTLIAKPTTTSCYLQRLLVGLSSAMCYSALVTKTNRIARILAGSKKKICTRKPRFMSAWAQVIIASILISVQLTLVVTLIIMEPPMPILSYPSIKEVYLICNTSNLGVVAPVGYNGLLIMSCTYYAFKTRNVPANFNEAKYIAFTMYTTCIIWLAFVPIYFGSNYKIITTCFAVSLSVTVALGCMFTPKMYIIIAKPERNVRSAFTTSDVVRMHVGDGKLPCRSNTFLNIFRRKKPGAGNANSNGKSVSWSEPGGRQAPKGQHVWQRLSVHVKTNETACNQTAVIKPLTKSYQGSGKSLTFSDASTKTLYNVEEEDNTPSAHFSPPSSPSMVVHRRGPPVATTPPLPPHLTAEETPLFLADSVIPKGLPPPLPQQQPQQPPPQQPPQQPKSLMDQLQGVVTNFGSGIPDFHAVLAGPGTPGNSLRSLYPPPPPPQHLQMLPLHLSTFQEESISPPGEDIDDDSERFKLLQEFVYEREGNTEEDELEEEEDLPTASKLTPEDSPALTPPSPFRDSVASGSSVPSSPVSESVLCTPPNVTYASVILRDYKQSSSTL

For `Cn1nc(-c2ccnn2C)cc1CNC(=O)c1cc(-n2cccn2)ccc1Cl` [compound 5], in data set [1], the half-maximal effective concentration (EC50) amounted to 0.558 µM and the “rat mGlu1 Glu Max” value was 105%. The compound also displayed an IC50 in data set [2] of more than 30 µM. The fraction unbound at 4 h, 5 µM in data set [3] is 0.095.
In data set [2], `Cc1nc2c(F)cccc2cc1CNC(=O)c1cc(-n2cccn2)ccc1Cl` [compound 7] registered an IC50 of 11.2 µM. Besides, in data set [3], the fraction unbound at 4 h, 5 µM was determined as 0.016.
Turning to `Cc1nc(C2CC2)ccc1CNC(=O)c1cc(-n2cccn2)ccc1Cl` [compound 8], in data set [1], the EC50 came out at 0.107 µM and the “rat mGlu1 Glu Max” value is listed as 94%. Moreover, the IC50 in data set [2] is 26 µM. Moreover, the fraction unbound at 4 h, 5 µM in data set [3] was 0.097.
In turn, `Cc1nc2ccccc2cc1CNC(=O)c1cc(-n2cccn2)ccc1Cl` [compound 6] registered an IC50 in data set [2] of 15.9 µM. Besides, the fraction unbound at 4 h, 5 µM in data set [3] stood at 0.054.
With `Cn1cc(-c2cc(CNC(=O)c3cc(-c4ccco4)ccc3Cl)n(C)n2)cn1` [compound 4], in data set [1], the EC50 was 0.037 µM and the “rat mGlu1 Glu Max” value was 137%. In data set [2], this compound registered an IC50 of 14.7 µM. In addition, the fraction unbound at 4 h, 5 µM in data set [3] worked out at 0.04.
